Assay results as given in patent US10906938B2, “Cell epitopes and combination of cell epitopes for use in the immunotherapy of myeloma and other cancers” (Immatics Biotechnologies GmbH, priority 2015, dated 2021).

Legend:
U266 cells = experiment: HLA class I ligand presentation upon carfilzomib treatment on U266 cells (LC-MS/MS); format: cell-based, human; set-up: key to modulation upon carfilzomib-treatment 24 #1 / modulation upon carfilzomib-treatment 24 #2 / modulation upon carfilzomib-treatment 24 #3 / modulation upon carfilzomib-treatment 48 #1 / modulation upon carfilzomib-treatment 48 #2 / modulation upon carfilzomib-treatment 48 #3: −1: significantly down-modulated; 0: not signifcant/not detected; 1: significantly up-modulated; settings: for modulation upon carfilzomib-treatment 24 #1 / modulation upon carfilzomib-treatment 24 #2 / modulation upon carfilzomib-treatment 24 #3 / modulation upon carfilzomib-treatment 48 #1 / modulation upon carfilzomib-treatment 48 #2 / modulation upon carfilzomib-treatment 48 #3: U266 cells, vs mock-treated controls; for modulation upon carfilzomib-treatment 24 #1 / modulation upon carfilzomib-treatment 24 #2 / modulation upon carfilzomib-treatment 24 #3: 24 h after carfilzomib treatment (100 nM, 1 h); for modulation upon carfilzomib-treatment 24 #1 / modulation upon carfilzomib-treatment 48 #1: biological replicate #1; for modulation upon carfilzomib-treatment 24 #2 / modulation upon carfilzomib-treatment 48 #2: biological replicate #2; for modulation upon carfilzomib-treatment 24 #3 / modulation upon carfilzomib-treatment 48 #3: biological replicate #3; for modulation upon carfilzomib-treatment 48 #1 / modulation upon carfilzomib-treatment 48 #2 / modulation upon carfilzomib-treatment 48 #3: 48 h after carfilzomib treatment (100 nM, 1 h)
Procedure: (§1) HLA class I and II molecules were isolated using standard immunoaffinity purification as described using the pan-HLA class I specific mAb W6/32, the pan-HLA class II specific mAb T039 and the HLA-DR specific mAB L243 (produced in house).
(§2) HLA ligand extracts were analyzed in 5 technical replicates as described previously. In brief, peptide samples were separated by nanoflow HPLC (RSLCnano, ThermoFisher) using a 50 μm×25 cm PepMap RSLC column (Thermo Fisher) and a gradient ranging from 2.4 to 32.0% acetonitrile over the course of 90 min. Eluting peptides were analyzed in an online coupled LTQ Orbitrap XL mass spectrometer (Thermo Fisher) using a top 5 CID (collision induced dissociation) fragmentation method.
(§3) Data processing was performed as described previously. In brief, the Mascot search engine (Mascot 2.2.04; Matrix Science, London, UK) was implemented to search the human proteome as comprised in the Swiss-Prot database (20,279 reviewed protein sequences, September 2013) without enzymatic restriction. Potential mutated HLA ligands were searched implementing a database containing the human proteome concatenated with proteins containing single amino acid variants (SAVs) listed in the COSMIC database (http://cancer.sanger.ac.uk/cosmic/). Only recurrent SAVs described in 2 or more samples of hematological origin were included. Oxidized methionine was allowed as a dynamic modification. The false discovery rate was estimated using the Percolator algorithm and set to 5%. Peptide lengths were limited to 8-12 amino acids for HLA class I and 12-25 amino acids for HLA class II. Protein inference was disabled, allowing for multiple protein annotations of peptides. HLA annotation was performed using SYFPEITHI [46] or an extended in-house database. Experimental validation of peptide identifications and HLA annotations was performed by mass spectrometric and functional characterization of synthetic peptides for a subset of peptides.
(§4) The inventors quantitatively assessed HLA class I ligand presentation during proteasome inhibitor therapy. Observed was a considerable plasticity of the HLA class I ligandome after treatment with carfilzomib with 17.9±1.1% of MM.1S ligands and 11.2±0.7% of U266 ligands (mean of three biological replicates ±s.d.) showing significant modulation (fold-change ≥4, Po0.01 after Benjamini-Hochberg correction) at t24 h compared with mock-treated controls. Briefly, Cultured MCLs (MM.1S and U266) and primary myeloma samples were incubated with carfilzomib (100 nM, Kyprolis®, available, e.g., from Onyx Pharmaceuticals, Inc.) as an example for a proteasome inhibitor for a 1-h period, followed by three washes in PBS (Gibco) and recultured for additional 24 or 48 h. Controls were incubated with vehicle control (glucose 5%) for 1 h, followed by identical washing and incubation for 24 or 48 h. Experiments were conducted in three biological replicates where indicated.

MM.1S cells = experiment: HLA class I ligand presentation upon carfilzomib treatment on MM.1S cells (LC-MS/MS); format: cell-based, human; set-up: key to modulation upon carfilzomib-treatment 24 #1 / modulation upon carfilzomib-treatment 24 #2 / modulation upon carfilzomib-treatment 24 #3 / modulation upon carfilzomib-treatment 48 #1 / modulation upon carfilzomib-treatment 48 #2 / modulation upon carfilzomib-treatment 48 #3: −1: significantly down-modulated; 0: not signifcant/not detected; 1: significantly up-modulated; settings: for modulation upon carfilzomib-treatment 24 #1 / modulation upon carfilzomib-treatment 24 #2 / modulation upon carfilzomib-treatment 24 #3: 24 h after carfilzomib treatment (100 nM, 1 h); for modulation upon carfilzomib-treatment 24 #1 / modulation upon carfilzomib-treatment 48 #1: biological replicate #1; for modulation upon carfilzomib-treatment 24 #1 / modulation upon carfilzomib-treatment 24 #2 / modulation upon carfilzomib-treatment 24 #3 / modulation upon carfilzomib-treatment 48 #1 / modulation upon carfilzomib-treatment 48 #2 / modulation upon carfilzomib-treatment 48 #3: vs mock-treated controls; for modulation upon carfilzomib-treatment 24 #2 / modulation upon carfilzomib-treatment 48 #2: biological replicate #2; for modulation upon carfilzomib-treatment 24 #3 / modulation upon carfilzomib-treatment 48 #3: biological replicate #3; for modulation upon carfilzomib-treatment 48 #1 / modulation upon carfilzomib-treatment 48 #2 / modulation upon carfilzomib-treatment 48 #3: 48 h after carfilzomib treatment (100 nM, 1 h)
Procedure: as §1, §2, §3, §4

[1] = carfilzomib 100 nM for 1 h, t24 h vs mock-treated controls, fold-change ≥4, Po0.01 after Benjamini-Hochberg correction, mean of three biological replicates ±s.d.

## CC(C)C[C@H](NC(=O)[C@H](CCc1ccccc1)NC(=O)CN1CCOCC1)C(=O)N[C@@H](Cc1ccccc1)C(=O)N[C@@H](CC(C)C)C(=O)[C@@]1(C)CO1 [carfilzomib, reference compound]
U266 cells; [1]
  U266 ligands showing significant modulation: 11.2±0.7%
MM.1S cells; [1]
  MM.1S ligands showing significant modulation: 17.9±1.1%

## APRHPSTNSL
U266 cells
  modulation upon carfilzomib-treatment 24 #1: 0
  modulation upon carfilzomib-treatment 24 #2: 1
  modulation upon carfilzomib-treatment 24 #3: 0
  modulation upon carfilzomib-treatment 48 #1: 1
  modulation upon carfilzomib-treatment 48 #2: 1
  modulation upon carfilzomib-treatment 48 #3: 0
MM.1S cells; MM.1S cells
  modulation upon carfilzomib-treatment 24 #1: 0
  modulation upon carfilzomib-treatment 24 #2: 0
  modulation upon carfilzomib-treatment 24 #3: 1
  modulation upon carfilzomib-treatment 48 #1: 0
  modulation upon carfilzomib-treatment 48 #2: 0
  modulation upon carfilzomib-treatment 48 #3: 0

## FAYPAIRYL
U266 cells
  modulation upon carfilzomib-treatment 24 #1: 0
  modulation upon carfilzomib-treatment 24 #2: 0
  modulation upon carfilzomib-treatment 24 #3: 0
  modulation upon carfilzomib-treatment 48 #1: 1
  modulation upon carfilzomib-treatment 48 #2: 0
  modulation upon carfilzomib-treatment 48 #3: 1
MM.1S cells; MM.1S cells
  modulation upon carfilzomib-treatment 24 #1: 0
  modulation upon carfilzomib-treatment 24 #2: 0
  modulation upon carfilzomib-treatment 24 #3: 0
  modulation upon carfilzomib-treatment 48 #1: 0
  modulation upon carfilzomib-treatment 48 #2: 0
  modulation upon carfilzomib-treatment 48 #3: 0

## FVFPGELLL
U266 cells
  modulation upon carfilzomib-treatment 24 #1: 1
  modulation upon carfilzomib-treatment 24 #2: 1
  modulation upon carfilzomib-treatment 24 #3: 0
  modulation upon carfilzomib-treatment 48 #1: 0
  modulation upon carfilzomib-treatment 48 #2: 0
  modulation upon carfilzomib-treatment 48 #3: 0
MM.1S cells; MM.1S cells
  modulation upon carfilzomib-treatment 24 #1: 0
  modulation upon carfilzomib-treatment 24 #2: 0
  modulation upon carfilzomib-treatment 24 #3: 0
  modulation upon carfilzomib-treatment 48 #1: 0
  modulation upon carfilzomib-treatment 48 #2: 0
  modulation upon carfilzomib-treatment 48 #3: 0

## IPAKPPVSF
U266 cells
  modulation upon carfilzomib-treatment 24 #1: 0
  modulation upon carfilzomib-treatment 24 #2: 0
  modulation upon carfilzomib-treatment 24 #3: 0
  modulation upon carfilzomib-treatment 48 #1: 0
  modulation upon carfilzomib-treatment 48 #2: 0
  modulation upon carfilzomib-treatment 48 #3: 0
MM.1S cells; MM.1S cells
  modulation upon carfilzomib-treatment 24 #1: 0
  modulation upon carfilzomib-treatment 24 #2: 0
  modulation upon carfilzomib-treatment 24 #3: 0
  modulation upon carfilzomib-treatment 48 #1: 0
  modulation upon carfilzomib-treatment 48 #2: 0
  modulation upon carfilzomib-treatment 48 #3: 0

## RYSTQIHSF
MM.1S cells; MM.1S cells
  modulation upon carfilzomib-treatment 24 #1: 0
  modulation upon carfilzomib-treatment 24 #2: 0
  modulation upon carfilzomib-treatment 24 #3: 0
  modulation upon carfilzomib-treatment 48 #1: 0
  modulation upon carfilzomib-treatment 48 #2: 0
  modulation upon carfilzomib-treatment 48 #3: 0

## SEFDFFERL
MM.1S cells; MM.1S cells
  modulation upon carfilzomib-treatment 24 #1: 0
  modulation upon carfilzomib-treatment 24 #2: 0
  modulation upon carfilzomib-treatment 24 #3: 0
  modulation upon carfilzomib-treatment 48 #1: 0
  modulation upon carfilzomib-treatment 48 #2: 0
  modulation upon carfilzomib-treatment 48 #3: −1

## SPALPGLKL
MM.1S cells; MM.1S cells
  modulation upon carfilzomib-treatment 24 #1: 0
  modulation upon carfilzomib-treatment 24 #2: 0
  modulation upon carfilzomib-treatment 24 #3: 0
  modulation upon carfilzomib-treatment 48 #1: 0
  modulation upon carfilzomib-treatment 48 #2: 0
  modulation upon carfilzomib-treatment 48 #3: 0

## SYLNSVQRL
MM.1S cells; MM.1S cells
  modulation upon carfilzomib-treatment 24 #1: 0
  modulation upon carfilzomib-treatment 24 #2: 0
  modulation upon carfilzomib-treatment 24 #3: 0
  modulation upon carfilzomib-treatment 48 #1: 0
  modulation upon carfilzomib-treatment 48 #2: 0
  modulation upon carfilzomib-treatment 48 #3: 0

## TASPLVKSV
MM.1S cells; MM.1S cells
  modulation upon carfilzomib-treatment 24 #1: 0
  modulation upon carfilzomib-treatment 24 #2: 0
  modulation upon carfilzomib-treatment 24 #3: 0
  modulation upon carfilzomib-treatment 48 #1: 0
  modulation upon carfilzomib-treatment 48 #2: 1
  modulation upon carfilzomib-treatment 48 #3: 0

## TFLPFIHTI
MM.1S cells; MM.1S cells
  modulation upon carfilzomib-treatment 24 #1: 0
  modulation upon carfilzomib-treatment 24 #2: 0
  modulation upon carfilzomib-treatment 24 #3: 0
  modulation upon carfilzomib-treatment 48 #1: 0
  modulation upon carfilzomib-treatment 48 #2: 0
  modulation upon carfilzomib-treatment 48 #3: 0

## VPLPPKGRVL
MM.1S cells; MM.1S cells
  modulation upon carfilzomib-treatment 24 #1: 0
  modulation upon carfilzomib-treatment 24 #2: 0
  modulation upon carfilzomib-treatment 24 #3: 0
  modulation upon carfilzomib-treatment 48 #1: 0
  modulation upon carfilzomib-treatment 48 #2: 0
  modulation upon carfilzomib-treatment 48 #3: 0

## VPLTRVSGGAA
MM.1S cells; MM.1S cells
  modulation upon carfilzomib-treatment 24 #1: 1
  modulation upon carfilzomib-treatment 24 #2: 1
  modulation upon carfilzomib-treatment 24 #3: 1
  modulation upon carfilzomib-treatment 48 #1: 1
  modulation upon carfilzomib-treatment 48 #2: 1
  modulation upon carfilzomib-treatment 48 #3: 1

## YVFPGVTRL
MM.1S cells; MM.1S cells
  modulation upon carfilzomib-treatment 24 #1: 0
  modulation upon carfilzomib-treatment 24 #2: 0
  modulation upon carfilzomib-treatment 24 #3: 0
  modulation upon carfilzomib-treatment 48 #1: −1
  modulation upon carfilzomib-treatment 48 #2: 0
  modulation upon carfilzomib-treatment 48 #3: 0

## YYLNEIQSF
MM.1S cells; MM.1S cells
  modulation upon carfilzomib-treatment 24 #1: 0
  modulation upon carfilzomib-treatment 24 #2: 0
  modulation upon carfilzomib-treatment 24 #3: 0
  modulation upon carfilzomib-treatment 48 #1: 0
  modulation upon carfilzomib-treatment 48 #2: 0
  modulation upon carfilzomib-treatment 48 #3: 0

## YYLNEIQSF [SEQ ID NO: 228]
MM.1S cells; MM.1S cells, 24 h after carfilzomib treatment
  modulation of peptide presentation upon carfilzomib treatment: no significant modulation
